Structures can show the parent of a compound that is named as a salt.
Assay: Bloodwork: complete blood count, electrolytes, extended blood chemistry
Assay type: in vivo, sheep
Protocol: Indirect blood pressure, pulse recording, pain testing (mechanical stimulus device, cold and warm water baths see description in procedure) and weight were taken on days 1, 3, 7, 15, 22, 29, 36, and 43. Venous blood samples (15 ml drawn from the jugular vein with Vacutainer brand blood collection tubes) for complete blood count, electrolytes, and extended blood chemistry were drawn on days 1, 15, and 43 (mild procedure only light hand restraint necessary).

[1] = sheep Chicken Hawk #87, 5 mg/day, Day 1
[2] = sheep Chicken Hawk #87, 5 mg/day, Day 15
[3] = sheep Chicken Hawk #87, 5 mg/day, Day 43
[4] = sheep Elmer Fudd #437, 5 mg/day, Baseline
[5] = sheep Elmer Fudd #437, 5 mg/day, Day 1
[6] = sheep Elmer Fudd #437, 5 mg/day, Day 15
[7] = sheep Elmer Fudd #437, 5 mg/day, Day 43

Cc1ncc2n1-c1ccc(Cl)cc1C(c1ccccc1F)=NC2 [Midazolam, midazolam hydrochloride]
Glucose [1]: 67 mg/dL
Hct [1]: 34.1%
Hgb [1]: 11.7 g/dL
K+ [1]: 4.5 mEq/l
MCH [1]: 30.9 pg
MCHC [1]: 34.3 g/dL
MCV [1]: 30.19 fL
Na+ [1]: 150 mEq/l
Phos [1]: 6.6 mg/dL
Platlet Count [1]: 1.28e+06 µL⁻¹
RBC [1]: 1.1e+07 µL⁻¹
Total Bili [1]: 0.1 mg/dL
Total Prot [1]: 5.7 g/dL
WBC [1]: 6000 µL⁻¹
ALT [2]: 6 U/L
AST [2]: 58 U/L
Albumin [2]: 3.8 g/dL
Alk Phos [2]: 79 U/L
BUN [2]: 17 mg/dL
CPK [2]: 425 U/L
Cholesterol [2]: 61 mg/dL
Creatinine [2]: 1.3 mg/dL
Differential Count: Atyp lym [2]: 0%
Differential Count: Baso [2]: 1%
Differential Count: Eosin [2]: 4%
Differential Count: Lymph [2]: 62%
Differential Count: Mono [2]: 4%
Differential Count: Seg [2]: 29%
Gamma GT [2]: 64 U/L
Glucose [2]: 79 mg/dL
Hct [2]: 29.8%
Hgb [2]: 10.0 g/dL
K+ [2]: 4.7 mEq/l
MCH [2]: 10.4 pg
MCHC [2]: 33.6 g/dL
MCV [2]: 30.8 fL
Na+ [2]: 148 mEq/l
Phos [2]: 5.0 mg/dL
Platlet Count [2]: 1.018e+06 µL⁻¹
RBC [2]: 9.7e+06 µL⁻¹
Total Bili [2]: 0.1 mg/dL
Total Prot [2]: 6.2 g/dL
WBC [2]: 5690 µL⁻¹
ALT [3]: 8 U/L
AST [3]: 62 U/L
Albumin [3]: 3.8 g/dL
Alk Phos [3]: 149 U/L
BUN [3]: 14 mg/dL
CPK [3]: 61 U/L
Cholesterol [3]: 62 mg/dL
Creatinine [3]: 1.1 mg/dL
Differential Count: Atyp lym [3]: 1%
Differential Count: Baso [3]: 1%
Differential Count: Eosin [3]: 5%
Differential Count: Lymph [3]: 53%
Differential Count: Mono [3]: 3%
Differential Count: Seg [3]: 37%
Gamma GT [3]: 55 U/L
Glucose [3]: 82 mg/dL
Hct [3]: 32.3%
Hgb [3]: 10.7 g/dL
K+ [3]: 5.0 mEq/l
MCH [3]: 10.5 pg
MCHC [3]: 33.0 g/dL
MCV [3]: 31.7 fL
Na+ [3]: 147 mEq/l
Phos [3]: 6.5 mg/dL
Platlet Count [3]: 891000 µL⁻¹
RBC [3]: 1.02e+07 µL⁻¹
Total Bili [3]: 0.1 mg/dL
Total Prot [3]: 6.5 g/dL
WBC [3]: 5130 µL⁻¹
Differential Count: Atyp lym [4]: 0%
Differential Count: Bands [4]: 0%
Differential Count: Eosin [4]: 54%
Differential Count: Lymph [4]: 35%
Differential Count: Mono [4]: 9%
Differential Count: Seg [4]: 51%
Hct [4]: 38.5%
Hgb [4]: 13.4 g/dL
MCH [4]: 12.0 pg
MCHC [4]: 34.7 G/dl
MCV [4]: 34.5 fL
Platlet Count [4]: 562000 µL⁻¹
RBC [4]: 1.12e+07 µL⁻¹
WBC [4]: 5320 µL⁻¹
ALT [5]: 8 U/L
AST [5]: 70 U/L
Albumin [5]: 4.1 g/dL
Alk Phos [5]: 49 U/L
BUN [5]: 17 mg/dL
CPK [5]: 49 U/L
Cholesterol [5]: 78 mg/dL
Creatinine [5]: 1.3 mg/dL
Differential Count: Atyp lym [5]: 0%
Differential Count: Bands [5]: 1%
Differential Count: Eosin [5]: 1%
Differential Count: Lymph [5]: 31%
Differential Count: Mono [5]: 6%
Differential Count: Seg [5]: 61%
Gamma GT [5]: 51 U/L
Glucose [5]: 104 mg/dL
Hct [5]: 36.1%
Hgb [5]: 12.4 g/dL
K+ [5]: 4.7 mEq/l
MCH [5]: 11.4 pg
MCHC [5]: 34.3 G/dl
MCV [5]: 33.4 fL
Na+ [5]: 150 mEq/l
Phos [5]: 5.9 mg/dL
Platlet Count [5]: 788000 µL⁻¹
RBC [5]: 1.08e+07 µL⁻¹
Total Bili [5]: 0.1 mg/dL
Total Prot [5]: 7.4 g/dL
WBC [5]: 6600 µL⁻¹
ALT [6]: 6 U/L
AST [6]: 67 U/L
Albumin [6]: 3.8 g/dL
Alk Phos [6]: 88 U/L
BUN [6]: 15 mg/dL
CPK [6]: 77 U/L
Cholesterol [6]: 74 mg/dL
Creatinine [6]: 1.2 mg/dL
Differential Count: Atyp lym [6]: 0%
Differential Count: Bands [6]: 0%
Differential Count: Eosin [6]: 10%
Differential Count: Lymph [6]: 39%
Differential Count: Mono [6]: 2%
Differential Count: Seg [6]: 49%
Gamma GT [6]: 54 U/L
Glucose [6]: 73 mg/dL
Hct [6]: 37.3%
Hgb [6]: 12.7 g/dL
K+ [6]: 4.7 mEq/l
MCH [6]: 11.2 pg
MCHC [6]: 34.1 G/dl
MCV [6]: 32.8 fL
Na+ [6]: 149 mEq/l
Phos [6]: 6.6 mg/dL
Platlet Count [6]: 677000 µL⁻¹
RBC [6]: 1.14e+07 µL⁻¹
Total Bili [6]: 0.1 mg/dL
Total Prot [6]: 6.8 g/dL
WBC [6]: 4990 µL⁻¹
ALT [7]: 9 U/L
AST [7]: 61 U/L
Albumin [7]: 4.1 g/dL
Alk Phos [7]: 72 U/L
BUN [7]: 16 mg/dL
